Source: US6916782B1, “Gene coding for heliomicine and use thereof” (priority 1998, dated 2005)
Bridge positions count the residues as written; N and C are the ends. Ends that are not written are not given here.

Assays:
female mice = assay: Study of acute toxicity, intravenous injection
Experimental: Groups of 4 female mice were treated by intravenous injection of solutions of heliomicine (SEQ ID NO:2) in saline solution at doses of 1 and 10 mg/kg.

Aspergillus fumigatus = assay: Inhibition of growth in liquid medium, filamentous fungi (MIC); format: cell-based; conditions: range [a]-[b], 48 h, 30° C.
Excerpt: (§1) This methodology was used to test for the antifungal molecules during the various purification steps, for the determination of the activity spectrum of the peptide and for the determination of the minimum inhibitory concentration (MIC) at which the peptide was active. The MIC was expressed as the concentration range [a]-[b] where [a] was the minimum concentration where the start of growth is observed and [b] the concentration for which no growth was observed.
(§2) The antifungal activity was detected by a test for inhibition of growth in a liquid medium. The spores of the fungi to be tested were suspended in a culture medium of the “potato-glucose” type. Preferably, 12 g of Potato Dextrose Broth medium (Difco) were used per 1 l of demineralized water. Two antibiotics were added to the culture medium: tetracycline (final concentration of 10 μg/ml) and cefotaxime (100 μg/ml). 10 μl of each fraction to be analysed are deposited in microtitre plates in the presence of 90 μl of culture medium containing the spores (at a final concentration of […]). The incubation was carried out in a humid chamber at 30° C. for 48 hours. Fungal growth was observed under a light microscope after 24 h and quantified after 48 hours by measuring the absorbance at 600 nm with the aid of a spectrophotometric microtitre plate reader. […]

Trichoderma viride = assay: as above; format: cell-based; conditions: range [a]-[b], 48 h, 30° C.
Excerpt: as §1, §2

Nectria haematococca = conditions: range [a]-[b], 48 h, 30° C.
Experimental: (§5) The antifungal activity was detected by a test for inhibition of growth in a liquid medium. The spores of the fungi to be tested were suspended in a culture medium of the “potato-glucose” type. Preferably, 12 g of Potato Dextrose Broth medium (Difco) were used per 1 l of demineralized water. Two antibiotics were added to the culture medium: tetracycline (final concentration of 10 μg/ml) and cefotaxime (100 μg/ml). 10 μl of each fraction to be analysed are deposited in microtitre plates in the presence of 90 μl of culture medium containing the spores (at a final concentration of 104 spores/ml). The incubation was carried out in a humid chamber at 30° C. for 48 hours. Fungal growth was observed under a light microscope after 24 h and quantified after 48 hours by measuring the absorbance at 600 nm with the aid of a spectrophotometric microtitre plate reader.
(§6) The different mutated heliomicines were analyzed for their antifungal activity under the conditions described for the reference heliomicine against the following strains: Neurospora crassa, Fusarium culmorum and Nectria haematococca.

Neurospora crassa = conditions: range [a]-[b], start of growth to no growth, 48 h, 30° C.
Experimental: as §5, §6

Cryptococcus albidus = assay: Test for detection of activity against yeasts (MIC); format: cell-based; conditions: range [a]-[b]
Excerpt: as §1
(§3) The various yeast strains were incubated in a “Sabouraud” type culture medium and incubated at 30° C. for 24 h with gentle stirring. The test sample (10 μl) was deposited in microtitre plate wells to which there were added 90 μl of a dilute yeast culture whose density was adjusted to OD 600=0.001. Growth was evaluated by measuring the absorbance at 600 nm with the aid of a spectrophotometric microtitre plate reader.
(§4) - yeasts tested: Candida albicans, C. glabrata, C. tropicalis, C. krusei, C. inconspicua, Cryptococcus neoformans, Cryp. albidus, Saccharomyces cerevisiae (gift from Dr. H. Koenig, Hôpital civil, Strasbourg).

Cryptococcus neoformans = assay: as above; format: cell-based; conditions: range [a]-[b]
Excerpt: as §1, §3, §4

Candida krusei = assay: as above; format: cell-based; conditions: range [a]-[b]
Excerpt: as §1, §3, §4

Candida tropicalis = assay: as above; format: cell-based; conditions: range [a]-[b]
Excerpt: as §1, §3, §4

Candida inconspicua = assay: as above; format: cell-based; conditions: range [a]-[b]
Excerpt: as §1, §3, §4

Candida albicans = assay: as above; format: cell-based; conditions: range [a]-[b]
Excerpt: as §1, §3, §4

Fusarium culmorum = conditions: range [a]-[b], 48 h, 30° C.
Experimental: as §5, §6

Row | Molecule | Toxic effects (female mice; intravenous injection, at 5 days at 1 mg) | Mortality (female mice; intravenous injection, at 5 days at 10 mg) [%] | MIC of heliomicine (Aspergillus fumigatus) [µM] | MIC of heliomicine (Trichoderma viride) [µM] | MIC of heliomicine (Nectria haematococca) [µM] | MIC of heliomicine (Neurospora crassa) [µM] | MIC of heliomicine (Cryptococcus albidus) [µM] | MIC of heliomicine (Cryptococcus neoformans) [µM] | MIC of heliomicine (Candida krusei) [µM] | MIC of heliomicine (Candida tropicalis) [µM] | MIC of heliomicine (Candida inconspicua) [µM] | MIC of heliomicine (Candida albicans) [µM] | Acute toxicity (female mice; intravenous injection in saline solution, doses of 1 and 10 mg/kg) | MIC of heliomicine (Fusarium culmorum) [µM]
1 | CC[C@H](C)[C@H](NC(=O)CN)C(=O)NCC(=O)N[C@@H](C)C(=O)N[C@H](C(=O)N[C@@H](CC(C)C)C(=O)N[C@@H](CCCCN)C(=O)N[C@H](C(=O)N[C@@H](CC(C)C)C(=O)N[C@H](C(=O)N[C@H](C(=O)NCC(=O)N[C@@H](CC(C)C)C(=O)N1CCC[C@H]1C(=O)N[C@@H](C)C(=O)N[C@@H](CC(C)C)C(=O)N[C@H](C(=O)N[C@@H](CO)C(=O)N[C@@H](Cc1c[nH]c2ccccc12)C(=O)N[C@H](C(=O)N[C@@H](CCCCN)C(=O)N[C@@H](CCCNC(=N)N)C(=O)N[C@@H](CCCCN)C(=O)N[C@@H](CCCNC(=N)N)C(=O)N[C@@H](CCC(N)=O)C(=O)N[C@@H](CCC(N)=O)C(N)=O)[C@@H](C)CC)[C@@H](C)CC)[C@@H](C)O)[C@@H](C)O)C(C)C)C(C)C [mellitin] | significant effects | 100 |  |  |  |  |  |  |  |  |  |  |  | 
2 | DKLIGSCVWGAVNYTSDCNGECKRRGYKGGHCGSFANVNCWCET (disulfide 7-32, 18-40, 22-42) [heliomicine] |  |  | 6 to 12.5 | 1.5 to 3 | 0.4 to 0.8 | 0.1 to 0.2 | 5 to 10 | 2.5 to 5 | 10 to 20 | 2.5 to 5 | 5 to 10 | 2.5 to 5 | No toxicity was demonstrated | 0.2 to 0.4
